Measured values reported in patent US11459375B2, “Cyclic peptides for the treatment of Graves' disease” (advanceCOR GmbH, priority 2017, dated 2022).

Legend:
[1] = system: Ad-TSHR-immunized mice; experiment: thyroid size at end of experiment in Graves' disease mouse model; type: in vivo, BALB/c mice; conditions: 1 mg/kg IV 4-weekly
Method: Representative images are shown. In FIG. 4B, the effects of peptide therapy on thyroid sizes were investigated at the end of the experiment. The measurements were carried out in Ad-TSHR-immunized mice treated by either 4-weekly injections with vehicle (0.9% NaCl, “Graves' no therapy”, n=25 mice), or administrations of 1 mg/kg body weight of peptide of the invention 836 (12 mice), or of peptide 829 (13 mice), or of TSHR-Fc (18 mice), or of control peptide 835 (13 mice). In addition, age-matched immunologically naïve unimmunized mice (“healthy”, 19 animals) were investigated. The mean thyroid sizes in mm^3 are shown with SEM. Differences between groups were tested by AVOVA followed by post hoc LSD testing. ** indicates statistical significance (p<0.001) compared to the TSHR-immunized group treated with only NaCl (“Graves' no therapy”).
(§1) The study protocol used three 3-weekly immunizations (“initiation”) and followed by a “maintenance” phase with further regular 4-weekly boosts until the 9th immunisation, as described before (22). Mice were randomly assigned to therapeutic groups. Therapy (either 1 mg/kg body weight peptides or 0.9% NaCl vehicle control) was given 1 week after the 4th immunization by IV injection into a tail vein, and then continued at 4-weekly intervals, as described before for the treatment of anti-β1AR (16). The fusion protein TSHR-Fc was given IV at identical times at doses of 1 mg/kg, but had to be applied together with the histamine receptor blocker clemastin (Tavegil®) at a dose of 0.02 mg per mouse (25 g body weight) to avoid clinical symptoms of allergic reaction, which had been observed in initial pilot studies of TSHR-Fc administration in mice.
After euthanasia, dissection of the thyroid glands was performed under a stereomicroscope, as described before (22). Briefly, cross cuts at the level above the larynx and below the seventh cartilage ring were made and the glands with the tracheae and oesophagi were removed from the necks. Tissue blocks were kept in 4% neutral para-formaldehyde (PFA), washed in PBS 3 times and embedded in optimum cutting temperature (OCT) formulation (Tissue-Tek® O.C.T.™ compound, VWR Chemicals, Leuven, Belgium). Consecutive 5 μm-thick cross sections were cut at a fixed distance of 500 μm using a Leica microtome CM 1850 Cryostat (temperature at −19° C.) and mounted on Thermo Polysine slides (Thermo Scientific, Cat J2800AMNZ). […] Thyroid volumes (mm^3) were calculated from the sum of the areas of each section over the whole cutting region. Myocardial volumes (mm^3) were calculated in a similar way as described for thyroid glands from the sum of the areas of each section over whole cutting region (5 to 6 slides, depending on respective size of the hearts). […]

[2] = system: Ad-TSHR-immunized mice; experiment: serum thyroxin (T4) levels in Graves' disease mouse model; type: in vivo, BALB/c mice; conditions: 1 mg/kg IV 4-weekly, after start of therapy (week 11)
Method: In FIG. 5 the effects of peptide therapy on serum thyroxin levels were evaluated. The measurements were carried out in Ad-TSHR-immunized mice treated by either 4-weekly injections with vehicle (0.9% NaCl, “Graves' no therapy”, n=25 mice), or administrations of 1 mg/kg body weight of peptide of the invention 836 (12 mice), or of peptide 829 (13 mice), or TSHR-Fc (18 mice), or of control peptide 835 (13 mice). In addition, age-matched immunologically naïve unimmunized mice (“healthy”, 19 animals) were investigated. Data are represented as means±SEM. Significance over time was tested by analysis of variance (ANOVA) of groups at given time points, and controlled by ANOVA for repeated measurements within one group, followed by LSD post-hoc testing. *p<0.05, and **p<0.005, compared to the TSHR-immunized group treated with only NaCl (“Graves' no therapy”).
as §1
Total thyroxine (T4) was measured by immunoassay kit (#T4044T-100, Calbiotech Inc, Austin, Calif.) in duplicate determination.

[3] = system: Ad-TSHR-immunized mice; experiment: ECG heart rates in Graves' disease mouse model; type: in vivo, BALB/c mice; conditions: 1 mg/kg IV 4-weekly, ECG under anaesthesia
Method: (§2) In FIG. 7 the effect of the peptide therapy on heart rates at various times during the experiment (A), and on heart weights (B) and cardiac ventricular volumes (C) at the end of the experiment were evaluated in all animals. The measurements were carried out in Ad-TSHR-immunized mice treated by either 4-weekly injections with vehicle (0.9% NaCl, “Graves' no therapy”, n=25 mice), or administrations of 1 mg/kg body weight of peptide of the invention 836 (12 mice), or of peptide 829 (13 mice), or TSHR-Fc (18 mice). In addition, age-matched immunologically naïve unimmunized mice (“healthy”, 19 animals) were investigated. Data are represented as mean±SEM. Significance over time was tested by analysis of variance (ANOVA) of groups at given time points, and controlled by ANOVA for repeated measurements within one group, followed by LSD post-hoc testing. *p<0.05, and **p<0.005, compared to the TSHR-immunized group treated with only NaCl (“Graves' no therapy”).
When mice were subjected to anaesthesia for immunisation, their heart function was monitored with an electrocardiogram (ECG amplifier module, Harvard Apparatus, Hugo Sachs electronics) and recorded with a special software, which allows to determine the heart rate from the ECG reading (Haemodyn, Hugo Sachs electronics). ECG was also performed in anaesthesia before animals were euthanized for histological exam at the end of the study.

[4] = system: Ad-TSHR-immunized mice; experiment: heart weights upon necropsy; type: in vivo, BALB/c mice; conditions: 1 mg/kg IV 4-weekly, necropsy at end of experiment
Method: as §2
Due to unavailability of some fine histological sections, analysis of this parameter in mice treated with other peptides could unfortunately not be completed.

[5] = type: physicochemical
Excerpt: Peptide 836 is a 24-meric cyclic peptide corresponding to the eighth TSHR LRD loop, and peptide 829 (also 24-meric) to the first loop of the TSHR LRD.

With NAFQGLCNETLTLKLYNNGFTSVQ [peptide 835] the thyroid size [1] was “did not show any effects”, the “serum thyroxin (T4) levels” value [2] was “did not result in any effects” and the heart rate [3] was “did not show any effects”. The heart weights [4] was “did not show any effects” and the solubility in water [5] was “easily soluble in water”.
